# Test results published in PMC9241695, “Selective Metal Chelation by a Thiosemicarbazone Derivative Interferes with Mitochondrial Respiration and Ribosome Biogenesis in Candida albicans” (Microbiology Spectrum, 2022).
# Like-named read-outs stand apart in the source and are kept apart here.
# How the values were obtained:
# C. albicans SC5314 [1] = assay: Rescue effect of exogenous metal ions on MIC of 19ak; type: cell-based; settings: Candida albicans
# Description: h (for C. albicans, C. krusei, C. tropicalis, C. parapsilosis) or 48 h (for C. neoformans, A. fumigatus). The MIC was determined based on visible growth inhibition compared with the control. All experiments were performed in duplicate. […]
# Rescue effect of exogenous metal ions on fungal growth inhibition by 19ak.
# Since the effects of thiosemicarbazone may be due to binding of intracellular metal ions, we investigated the impact of adding metal ions to the medium on the inhibitory effect of 19ak by performing antifungal susceptibility testing as described above in the presence of 50 μM, 100 μM, and 200 μM ZnSO4, FeSO4, and FeCl3. […]
# C. albicans SC5314 cells = assay: Intracellular labile zinc levels using Zinbo-5; type: cell-based, Candida albicans; settings: 6 h
# Description: C. albicans SC5314 cells grown overnight were pelleted, washed three times with PBS buffer, and resuspended to obtain an OD600 of 2.0. Next, the cells were incubated with various concentrations of 19ak in 96-well plates at 30°C for 6 h, followed by incubation with 10 μM Zinbo-5 for 30 min. Finally, fluorescence was measured in a microplate reader (excitation at 355 nm, emission at 485 nm). Similar approach was used in detection of intracellular zinc levels of mammalian cells.
# C. albicans SC5314 [2] = assay: Time-growth curve with antioxidants; type: cell-based, Candida albicans; settings: SC medium, 5 mM NAC or 5 mM Tu, 0.25 or 0.5 μg/mL 19ak, 15 h
# Description: albicans SC5314 cells (1 × 10^6 cells/mL) were challenged with various doses of 19ak and incubated at 30°C for 6 h, followed by staining with 20 μM Rh123 for 30 min in the dark and detection by flow cytometry (Becton Dickinson, CA, USA).
# Measurement of intracellular ATP production. To explore whether 19ak affects intracellular ATP content by damaging mitochondria, we treated C. albicans SC5314 cells (1 × 10^6 cells/mL) with different doses of 19ak. After lysing the cells in lysis buffer, ATP levels were measured with the ATP Assay Kit (Beyotime, Haimen, China) according to the manufacturer's instructions. Cellular protein concentrations were determined using a BCA Protein Assay Kit (Beyotime, Haimen, China). The intracellular ATP content was calculated by referring to a standard curve and normalized using the protein content of each sample for expression as nmol/mg […]
# ROS production assay. […] The fluorescence intensity was then measured by flow cytometry, and the data were analyzed with Win MDI 2.9 software.
# Influence of oxidant or antioxidant molecules on 19ak activity. […] The effects of NAC, Tu and DTT on the growth of 19ak treated fungal cells were measured using a time-growth curve. […] A microplate reader was used to measure the absorbance at600 nm, and the growth curves were plotted.
smiles,measurement,setting,value
C/C(=N\NC(=S)N(C)C)c1ccccn1 [Compound 19ak],MIC,"C. albicans SC5314 [1]; SC5314, + 50 μM Fe^2+ (FeSO4), read-out: MIC against C. albicans SC5314",1 µg/mL
same,MIC,"C. albicans SC5314 [1]; SC5314, + 50 μM Fe^3+ (FeCl3), read-out: MIC against C. albicans SC5314",0.25 µg/mL
same,MIC,"C. albicans SC5314 [1]; SC5314, + 50 μM Zn^2+ (ZnSO4), read-out: MIC against C. albicans SC5314",4 µg/mL
same,MIC,"C. albicans SC5314 [1]; SC5314, + 100 μM Fe^2+ (FeSO4), read-out: MIC against C. albicans SC5314",1 µg/mL
same,MIC,"C. albicans SC5314 [1]; SC5314, + 100 μM Fe^3+ (FeCl3), read-out: MIC against C. albicans SC5314",0.25 µg/mL
same,MIC,"C. albicans SC5314 [1]; SC5314, + 100 μM Zn^2+ (ZnSO4), read-out: MIC against C. albicans SC5314",4 µg/mL
same,MIC,"C. albicans SC5314 [1]; SC5314, + 200 μM Fe^2+ (FeSO4), read-out: MIC against C. albicans SC5314",1 µg/mL
same,MIC,"C. albicans SC5314 [1]; SC5314, + 200 μM Fe^3+ (FeCl3), read-out: MIC against C. albicans SC5314",0.5 µg/mL
same,MIC,"C. albicans SC5314 [1]; SC5314, + 200 μM Zn^2+ (ZnSO4), read-out: MIC against C. albicans SC5314",4 µg/mL
same,MIC,"C. albicans SC5314 [1]; SC5314, read-out: MIC against C. albicans SC5314",0.125 µg/mL
same,Labile zinc ions (Zinbo-5 fluorescence),C. albicans SC5314 cells; 0.125 μg/mL,decreased
same,Reduction of intracellular zinc ions,C. albicans SC5314 cells; 1 μg/mL,approximately 59.6%
same,Effect of antioxidants NAC and Tu on antifungal activity (cell growth monitoring),C. albicans SC5314 [2],greatly enhanced the antifungal activity
